One block for each compound: values may come before it.
How the values were obtained:
[1] = system: serum IgE; experiment: Measurement of serum IgE in mild to moderate asthmatics; type: in vivo, human
Description: The effect of the CRTH2 antagonist Compound 1 compared to placebo was studied in mild to moderate asthmatics with an FEV1 of 60-80% of predicted and requiring only short acting inhaled β2-adrenergic agonists for symptomatic control.
Blood was collected for measurement of serum IgE at the beginning of the study and after 4 weeks of dosing with Compound 1 or placebo. Total serum IgE was quantified using fluorescent immunoassay using the Phadia CAP system.

[2] = system: Human Th2 cells; experiment: Apoptosis challenge test (Annexin V-PE/PI flow cytometry); type: cell-based; settings: for IC50: Homo sapiens, 100 nM PGD2, absence of IL-2, 16 hrs, read-out: IC50 to the rescuing function of PGD2
Procedure: Human Th2 cells were treated with 50 U/ml IL-2 or various concentrations of PGD2 in the absence of IL-2 for 16 hrs. The cells were stained with Annexin V-PE/PI and then analysed by FACSArray flow cytometer.
Human Th2 cells were treated in the absence of IL-2 with a medium containing 100 nM PGD2 and various concentrations of CRTH2 antagonistic compounds (Compounds 1, 2, 3, 4 and 5) for 16 hrs. The cells were stained with Annexin V-PE/PI and then analysed by FACSArray flow cytometer.

[3] = system: human subjects with allergic rhinitis; experiment: Vienna Challenge Chamber study (allergen challenge, symptom scores); type: in vivo; settings: for reduction in total nasal symptom score compared to placebo / reduction in total eye symptom score compared to placebo: oral, both patient groups combined; for reduction in total nasal symptom score compared to placebo: FIG. 1A; for reduction in total eye symptom score compared to placebo: FIG. 1B
Description: The study was a randomised, double blind, placebo controlled, two way crossover evaluation of Compound 1, given orally for eight days. There was a screening period of one week and a washout period of three weeks between the two treatment periods. There was a follow up one week after the last dose of study drug. The group of patients who received the study drug for the first treatment period and placebo for the second was designated group A, while the group of patients who received placebo for the first treatment period and the study drug for the second treatment period was designated group B.
The subjects underwent a complete screening assessment to determine a baseline response to allergens. This screening assessment took place one week prior to the start of dosing. • Subjects commenced dosing with Compound 1 or placebo on Day 1 (visit 2 or visit 5) of each treatment period of the study. […] Subjects took each dose (2 capsules in the morning and 2 capsules in the evening) as soon as they had finished breakfast and their evening meal respectively.
Subjects reported back to the clinic on Day 2 of each treatment period for a 6 hour allergen challenge. The following measurements were obtained: • Total nasal symptom score (TNSS) (obstruction, rhinorrhoea, itch, sneeze) with each symptom scored on a categorical scale from 0 to 3 pre-challenge, every 15 mins from 0 to 6 h post-start of challenge • Eye symptom score (watery eyes, itchy eyes, red eyes) with each symptom scored on a categorical scale from 0 to 3 pre-challenge, every 15 mins from 0 to 6 h post-start of challenge • Other symptoms (cough, itchy throat, itchy ears) with each symptom scored on a categorical scale from 0 to 3 pre-challenge and every 15 mins from 0 to 6 h post-start of challenge
Subjects reported back to the clinic on Day 8 of each treatment period for a 6 hour allergen challenge and the measurements obtained on Day 2 were repeated.
A final follow-up visit was conducted one after the last dose of test article in Treatment Period 2.

[4] = target: T1, CRTH2 receptor (Homo sapiens, UniProt Q9Y5Y4); experiment: Calcium mobilisation assay in CHO/CRTH2 cells; type: cell-based; settings: n=3, read-out: EC50, increase in intracellular Ca2+ mobilisation
T1 construct: expressed in transfected cells; host or cells: Chinese Hamster Ovary (CHO) cells
T1 sequence (Q9Y5Y4 1-395): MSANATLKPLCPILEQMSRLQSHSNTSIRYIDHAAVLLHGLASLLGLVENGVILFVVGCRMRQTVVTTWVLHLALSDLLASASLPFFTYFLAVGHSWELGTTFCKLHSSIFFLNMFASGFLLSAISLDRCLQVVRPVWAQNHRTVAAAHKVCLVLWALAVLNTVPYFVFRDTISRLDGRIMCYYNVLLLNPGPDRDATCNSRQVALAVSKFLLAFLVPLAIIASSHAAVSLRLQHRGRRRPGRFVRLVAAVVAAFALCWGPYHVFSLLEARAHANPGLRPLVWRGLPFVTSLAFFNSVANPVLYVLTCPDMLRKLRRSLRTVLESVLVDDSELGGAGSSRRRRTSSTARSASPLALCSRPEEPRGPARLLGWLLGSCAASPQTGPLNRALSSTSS
Procedure: Chinese Hamster Ovary cells were transfected with CRTH2 receptors (CHO/CRTH2) and were maintained in culture in a humidified atmosphere at 37° C. (5% CO2) in Minimum Essential Medium (MEM) supplemented with 10% foetal bovine serum, 2 mM glutamine, and 1 mg ml^−1 active G418. The cells were passaged every 2-3 days. For radioligand binding assay, cells were prepared in triple-layer flasks or in 175 cm^2 square flasks (for membrane preparation). For calcium mobilisation assay, cells were grown in a 96 well plate 24 h prior to the assay at a density of 80,000 cells per well.
Cells were seeded onto poly-D-lysine coated 96-well plates at a density of 80,000 cells per well and incubated at 37° C. overnight to allow the cells to adhere. Cells were washed twice with HBSS and incubated for 1 h at 37° C. in 100 μl HBSS and 100 μl calcium-3-dye (Molecular Devices), supplemented with 4 mM probenecid. Changes in fluorescence were monitored over a 50 s time course with agonist addition at 17 s using a Flexstation (Molecular Devices).

Structure (SMILES): Cc1c(Cc2ccc3ccccc3n2)c2cc(F)ccc2n1CC(=O)O [Compound 1, (5-Fluoro-2-methyl-3-quinolin-2-ylmethyl-indol-1-yl)-acetic acid]
median reduction in IgE at endpoint ([1]; after 4 weeks of dosing, p=0.033 vs placebo, Wilcoxon test): −17.0 IU/mL | reduction in serum IgE ([1]; after treatment for 4 weeks, FIG. 3): 41% | IC50 [2]: < 100 nM | duration of effect on nasal symptom score after the last treatment ([3]; Group A, on placebo after 8 days of drug and three week washout): more than 4 weeks | reduction in total nasal symptom score compared to placebo ([3]; after 2 days of dosing): 23% | reduction in total eye symptom score compared to placebo ([3]; after 2 days of dosing): 45% | reduction in total nasal symptom score compared to placebo ([3]; after 8 days of dosing): 37% | reduction in total eye symptom score compared to placebo ([3]; after 8 days of dosing): 61% | reduction in Total Nasal Symptom Score (0-6 hr) ([3]; remaining 22 days after the last dose): 36% | reduction in Total Nasal Symptom Score (0-6 hr) ([3]; remaining 28 days after the last dose): 38%

Structure (SMILES): Cc1c(Cc2cc3ccccc3cc2S(C)(=O)=O)c2cc(F)ccc2n1CC(=O)O [Compound 3, {5-Fluoro-3-[(3-methanesulfonylnaphthalen-2-yl)methyl]-2-methylindol-1-yl}-acetic acid]
IC50 [2]: < 100 nM

Structure (SMILES): CCCCC[C@H](O)/C=C/[C@H]1C(=O)C[C@H](O)[C@@H]1C/C=C\CCCC(=O)O [PGD2, prostaglandin D2, reference compound]
EC50 [4]: 2.4 ± 0.5 nM | effect on apoptosis of Th2 cells ([2]; absence of IL-2, 16 hrs): anti-apoptotic effect

Other lines, results leading:

IC50 [2]: < 100 nM
Structure (SMILES): Cc1c(Cc2ccccc2S(=O)(=O)c2ccccc2)c2cc(F)ccc2n1CC(=O)O [Compound 2, (3-{[2-(Benzenesulfonyl)phenyl]methyl}-5-fluoro-2-methylindol-1-yl)-acetic acid]

IC50 [2]: < 100 nM
Structure (SMILES): Cc1c(Cc2cccnc2S(=O)(=O)c2ccccc2)c2cc(F)ccc2n1CC(=O)O [Compound 4, (3-{[2-(Benzenesulfonyl)pyridin-3-yl]methyl}-5-fluoro-2-methylindol-1-yl)-acetic acid]

IC50 [2]: 204 ± 160 nM
Structure (SMILES): Cc1c(S(=O)(=O)c2ccc(Cl)cc2)c2cc(F)ccc2n1CC(=O)O [[5-Fluoro-3-(4-chloro-benzenesulfonyl)-2-methyl-indol-1-yl]-acetic acid, reference compound]

Source: patent publication US20110124683A1, “Use of CRTH2 Antagonist Compounds” (Oxagen Limited, priority 2007, published 2011)
